Assay results: PubChem BioAssay (NCI)
Several values for one entry are separate records, joined by “and”; a condition that tells them apart may be missing. Equal values may be shown once.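 Results reflect a 48-hour exposure of cells in 96-well plates to compound at five concentrations. GI50: concentration for 50% inhibition of growth. The concentration for full growth arrest is given as TGI.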 *1 amine or outer side, *2 acyl side, *3 side chain or, on linkers, in order; H or OH if unused. Where a SMILES comes first, the peptide text is derived from it. Bridges are numbered along the chain shown (N, C = ends). [ ]: non-standard residue; d: D form. ξ: configuration not given here. X4 = CCC(C)C(N[*:1])C(O)CC(=O)O[C@H](C(=O)C(C)C(=O)[*:2])C(C)C; NMeY = CN[C@@H](Cc1ccc(O)cc1)C(=O)O; ξNMeL = CNC(CC(C)C)C(=O)O; ξT = CC(O)C(N)C(=O)O

Assays:
Test in all cases: DTP human tumour cell line panel, 48 h
[1] = tested on: HCC-2998 colon
[2] = tested on: OVCAR-8 ovarian
[3] = tested on: SF-539 CNS
[4] = tested on: UACC-257 melanoma
[5] = tested on: SK-MEL-28 melanoma
[6] = tested on: MDA-MB-435
[7] = tested on: EKVX NSCLC
[8] = tested on: NCI-H460 lung
[9] = tested on: CAKI-1 renal
[10] = tested on: SR leukemia

| SMILES | GI50 [1] | TGI [1] | GI50 [2] | TGI [2] | GI50 [3] | TGI [3] | GI50 [4] | TGI [4] | TGI [5] | TGI [6] | TGI [7] | TGI [8] | TGI [9] | TGI [10] | GI50 [5] | GI50 [6] | GI50 [7] | GI50 [8] | GI50 [9] |
| --- | --- | --- | --- | --- | --- | --- | --- | --- | --- | --- | --- | --- | --- | --- | --- | --- | --- | --- | --- |
| CC[N+](CC)=c1ccc2nc3c(cc(N)c4ccccc43)oc-2c1 | 0.257 µM | 0.661 µM | 1.07 µM | 3.43 µM | 0.174 µM | 0.32 µM | 1.56 µM | 3.05 µM | – | – | – | – | – | – | – | – | – | – | – |
| N#CC1=CNc2sccc2S1(=O)=O | – | > 100 µM | – | > 100 µM | – | > 100 µM | – | > 100 µM | > 100 µM | > 100 µM | > 100 µM | > 100 µM | > 100 µM | – | – | – | – | – | – |
| NC(=O)COc1ccccc1 | – | > 100 µM | – | > 100 µM | – | > 100 µM | – | > 100 µM | > 100 µM | – | > 100 µM | > 100 µM | > 100 µM | > 100 µM | – | – | – | – | – |
| COc1ccc(NC2Oc3cc4c(cc3C(c3cc(OC)c(O)c(OC)c3)C2C)OCO4)cc1 (stereo unspecified) | – | 21.7 µM | – | 67.7 µM | – | 25.6 µM | – | > 100 µM | 37.3 µM | 2.51 µM | – | 23.3 µM | 30 µM | – | – | – | – | – | – |
| OCCN=C1Nc2ccc(Cl)cc2C(=S)N2CSC[C@@H]12 | – | > 100 µM | – | > 100 µM | – | > 100 µM | – | – | > 100 µM | > 100 µM | – | > 100 µM | > 100 µM | > 100 µM | – | – | – | – | – |
| CCC(C)C1NC(=O)C(NC(=O)C(CC(C)C)N(C)C(=O)[C@@H]2CCCN2)C(C)OC(=O)[C@H](Cc2ccc(OC)cc2)N(C)C(=O)[C@@H]2CCCN2C(=O)[C@H](CC(C)C)NC(=O)C(C)C(=O)[C@H](C(C)C)OC(=O)CC1O (stereo partly specified) (H-P[ξNMeL][ξT][X4]LP[NMeY](Me); ester 3-C) | – | 0.0104 µM and 0.0108 µM | – | 0.0243 µM and 0.0387 µM | – | 0.00208 µM | – | 0.00814 µM and 0.0465 µM | 0.00179 µM | 0.0032 µM | 0.0474 µM | – | 0.364 µM and 0.13 µM | 7.45 µM | – | – | – | – | – |
| O=C(N=Nc1ccccc1Br)NNc1ccccc1Br | – | 56.6 µM | – | > 100 µM | – | – | – | > 100 µM | > 100 µM | > 100 µM | – | > 100 µM | > 100 µM | > 100 µM | – | – | – | – | – |
| OC1OC(c2ccco2)C(F)(F)C(F)(F)C1(F)F (stereo unspecified) | – | – | – | > 100 µM | – | > 100 µM | – | > 100 µM | > 100 µM | > 100 µM | > 100 µM | > 100 µM | – | – | – | – | – | – | – |
| CSc1nncc(-c2cc3c(c(SC)n2)CCC3)n1 | – | – | – | 57.1 µM | – | – | – | > 100 µM | > 100 µM | > 100 µM | > 100 µM | – | > 100 µM | – | – | – | – | – | – |
| O=C(NNC(=S)Nc1ccccc1)c1csc(NC(=S)NC2CCCCC2)n1 | – | > 100 µM | – | > 100 µM | – | > 100 µM | – | 56.8 µM | – | > 100 µM | > 100 µM | – | > 100 µM | > 100 µM | – | – | – | – | – |
| Nc1nc2c(ncn2C2C=CC(CO)O2)c(=O)[nH]1 (stereo unspecified) | – | – | – | > 100 µM | – | – | – | > 100 µM | > 100 µM | > 100 µM | – | > 100 µM | > 100 µM | > 100 µM | – | – | – | – | – |
| NC(N)=N/N=C/c1nc2sccn2c1[N+](=O)[O-] | – | – | – | > 100 µM | – | > 100 µM | – | 31.7 µM | > 100 µM | 39.9 µM | > 100 µM | 40.9 µM | > 100 µM | > 100 µM | – | – | – | – | – |
| CCOC(=O)C(O)(NC(C)=O)C(F)(F)F (stereo unspecified) | – | > 100 µM | – | > 100 µM | – | > 100 µM | – | > 100 µM | > 100 µM | > 100 µM | > 100 µM | – | > 100 µM | > 100 µM | – | – | – | – | – |
| O=[As](O)(O)c1cc(N=Nc2ccc(-c3ccc(N=Nc4cc([As](=O)(O)O)c(O)cc4O)cc3)cc2)c(O)cc1O | – | > 100 µM | – | > 100 µM | – | > 100 µM | – | > 100 µM | > 100 µM | – | > 100 µM | > 100 µM | > 100 µM | > 100 µM | – | – | – | – | – |
| CCOC(=O)c1sc2c(c1OC(=O)c1ccccc1)c(=O)n(-c1ccccc1)c(=S)n2-c1ccccc1 | – | 74.5 µM | – | > 100 µM | – | 47.7 µM | – | > 100 µM | > 100 µM | 51.7 µM | > 100 µM | 41.5 µM | > 100 µM | – | – | – | – | – | – |
| COc1ccc(-c2c(C#N)c(-c3ccccc3)n(NS(=O)(=O)c3ccccc3)c(=O)c2C#N)cc1 | – | > 100 µM | – | > 100 µM | – | > 100 µM | – | > 100 µM | > 100 µM | > 100 µM | > 100 µM | > 100 µM | > 100 µM | – | – | – | – | – | – |
| CC1=CC[C@@H]2CC[C@]3(C)[C@H](CC[C@@H]4[C@@]5(C)CCCNC(C)(C)[C@@H]5CC[C@]43C)[C@H]2[C@@H]1C | – | – | – | – | 1.69 µM | 3.13 µM | 1.86 µM | 3.63 µM | 3.32 µM | 3.28 µM | 3.38 µM | 3.09 µM | 3.05 µM | – | 1.81 µM | 1.85 µM | 1.74 µM | 1.48 µM | 1.69 µM |
